Test results published in patent publication US9586880B2, “Small molecule inhibitors of necroptosis” (President and Fellows of Harvard College, priority 2008, dated 2017).

Columns and labels:
[1] = tested on: FADD-deficient variant of human Jurkat T cells; test: TNF-α induced necroptosis inhibition, ATP-based viability assessment; type: cell-based; conditions: 10 ng/mL human TNF-α, 24 hours, CellTiter-Glo viability; for EC50: Jurkat
Protocol: (§1) Evaluation of necroptosis inhibitory activity was performed using a FADD-deficient variant of human Jurkat T cells or with L929 cells treated with TNF-α as previously described (Degterev et al., Nat. Chem. Biol. 1:112 (2005) and Jagtap et al., J. Med. Chem. 50: 1886 (2007)). Utilizing these conditions the cells efficiently underwent necroptosis. For EC50 value determinations, cells were treated with 10 ng/mL of human TNF-α in the presence of increasing concentration of test compounds for 24 hours followed by ATP-based viability assessment.
(§2) ATP-based viability assessment: Briefly, necroptosis activity was performed using a FADD-deficient variant of human Jurkat T cells or L929 cells treated with TNF-α. For EC50 value determinations, cells (500,000 cells/mL, 100 μL per well in a 96-well plate) were treated with 10 ng/mL of human TNF-α in the presence of increasing concentration of test compounds for 24 hours at 37° C. in a humidified incubator with 5% CO2 followed by ATP-based viability assessment. Stock solutions (30 mM) in DMSO were initially prepared and then diluted with DMSO to give testing solutions, which were added to each test well. The final DMSO concentration was 0.5%. Eleven compound test concentrations (0.030-100 μM) were used. Each concentration was done in duplicate.
(§3) Cell viability assessments were performed using a commercial luminescent ATP-based assay kit (CellTiter-Glo, Promega, Madison, Wis.) according to the manufacturer's instructions. Briefly, 40 μL of the cell lysis/ATP detection reagent was added to each well. Plates were incubated on a rocking platform for 10 minutes at room temperature and luminescence was measured using a Wallac Victor 3 plate-reader (Perkin Elmer, Wellesley, Mass.). Cell viability was expressed as a ratio of the signal in the well treated with TNF-α and compound to the signal in the well treated with compound alone. This was done to account for nonspecific toxicity, which in most cases was <10%. EC50 values were calculated using nonlinear regression analysis of sigmoid dose-response (variable slope) curves from plots of log [I] verses viability values.

L929 cells = test: as above; type: cell-based; conditions: 10 ng/mL human TNF-α, 24 hours, CellTiter-Glo viability; for EC50: Mus musculus, L929
Protocol: as §1, §2, §3

COc1cc(C2CC(=O)NC(SCC(=O)Nc3nccs3)=C2C#N)cc(OC)c1OC (stereo not drawn) [(1)]
EC50 [1]: 0.477 µM | EC50 (L929 cells): 0.197 µM

N#CC1=C(SCC(=O)Nc2nccs2)NC(=O)CC1c1ccccc1F (stereo not drawn) [(2)]
EC50 [1]: 0.769 µM

N#CC1=C(SCC(=O)Nc2nccs2)NC(=O)CC1c1ccc(Cl)cc1 (stereo not drawn) [(3)]
EC50 [1]: 0.823 µM

COc1ccc(C2CC(=O)NC(SCC(=O)Nc3nccs3)=C2C#N)cc1OC (stereo not drawn) [(4)]
EC50 [1]: 0.354 µM

COC(=O)C1C(=O)NC(SCC(=O)Nc2nccs2)=C(C#N)C1c1ccc(Cl)cc1 (stereo not drawn) [(5)]
EC50 [1]: 25 µM

N#CC1=C(SCC(=O)Nc2nccs2)NC(=O)CC1c1ccccc1 (stereo not drawn) [(6)]
EC50 Fadd −/− Jurkat [1]: Partial activity

COc1ccccc1C1CC(=O)NC(SCC(=O)Nc2nccs2)=C1C#N (stereo not drawn) [(7)]
EC50 [1]: 2.38 µM

N#CC1=C(SCC(N)=O)NC(=O)CC1c1ccccc1 (stereo not drawn) [(8)]
EC50 Fadd −/− Jurkat [1]: inactive

COc1ccc(NC(=O)CSC2=C(C#N)C(c3cc(OC)c(OC)c(OC)c3)CC(=O)N2)cc1 (stereo not drawn) [(9)]
EC50 Fadd −/− Jurkat [1]: inactive

COc1cc(C2CC(=O)NC(SCC(=O)Nc3ccccc3)=C2C#N)cc(OC)c1OC (stereo not drawn) [(10)]
EC50 Fadd −/− Jurkat [1]: inactive

COc1cc(C2CC(=O)NC(SCC(=O)Nc3ccc(F)cc3)=C2C#N)cc(OC)c1OC (stereo not drawn) [(11)]
EC50 Fadd −/− Jurkat [1]: inactive

COc1cc(C2CC(=O)NC(SCC(=O)Nc3c(C)cc(C)cc3C)=C2C#N)cc(OC)c1OC (stereo not drawn) [(12)]
EC50 Fadd −/− Jurkat [1]: inactive

O=C(Nc1ccccc1)N1N=CCC1c1ccccc1 (stereo not drawn) [(17)]
EC50 Fadd −/− Jurkat [1]: inconclusive

CCN1CCN(CC(=O)N2N=CCC2c2ccccc2)CC1 (stereo not drawn) [(18)]
EC50 [1]: 0.41 µM

Cc1ccc(C(=O)C2=NNCC2c2ccccc2)cc1 (stereo not drawn) [(19)]
EC50 [1]: 0.369 µM

O=C(CSc1ccc(Cl)cc1)N1N=CCC1c1ccccc1 (stereo not drawn) [(20)]
EC50 [1]: 3.21 µM

O=C(CSc1nc2ccccc2s1)N1N=CCC1c1ccccc1 (stereo not drawn) [(21)]
EC50 [1]: 1.56 µM

Clc1ccc(-c2cc[nH]n2)cc1 [(22)]
EC50 Fadd −/− Jurkat [1]: Inactive

CCOC(=O)C1NN=C(C(=O)c2ccccc2)C1c1ccccc1 (stereo not drawn) [(23)]
EC50 Fadd −/− Jurkat [1]: Inactive

CCOC(=O)C1=NNC(C(=O)c2ccccc2)C1c1ccc(Cl)cc1 (stereo not drawn) [(24)]
EC50 Fadd −/− Jurkat [1]: Inactive

Cn1ccnc1SCC(=O)N1N=CCC1c1ccccc1 (stereo not drawn) [(25)]
EC50 Fadd −/− Jurkat [1]: Inactive

Cc1ccc2nc(SCC(=O)N3N=CCC3c3ccccc3)nc(C)c2c1 (stereo not drawn) [(26)]
EC50 Fadd −/− Jurkat [1]: Inactive

C#CC1(O)c2ccccc2C=Cc2ccccc21 [(28)]
EC50 [1]: 2.98 µM

C#CC(O)(c1ccccc1)c1ccccc1 [(29)]
EC50 [1]: 31.8 µM

CCC1(O)c2ccccc2CCc2ccccc21 [(30)]
EC50 [1]: 5.83 µM

C=CC1(O)c2ccccc2CCc2ccccc21 [(31)]
EC50 [1]: 2.95 µM

C#CC1(O)c2ccccc2CCc2ccc(F)cc21 (stereo not drawn) [(32)]
EC50 [1]: 2 µM

C#CC1(O)c2ccccc2CCc2c(F)cccc21 (stereo not drawn) [(33)]
EC50 [1]: 4.79 µM

C#CC1(O)CCCCCC1 [(34)]
EC50 Fadd −/− Jurkat [1]: Inactive

C#CC1(O)c2ccccc2-c2ccccc21 [(35)]
EC50 Fadd −/− Jurkat [1]: Inactive

C#CC1(OC)c2ccccc2CCc2ccccc21 [(36)]
EC50 Fadd −/− Jurkat [1]: Inactive

C=C(Br)C1(Br)c2ccccc2CCc2ccccc21 [(37)]
EC50 Fadd −/− Jurkat [1]: Inactive

C=C(Cl)C1(Cl)c2ccccc2CCc2ccccc21 [(38)]
EC50 Fadd −/− Jurkat [1]: Inactive

OC1(C#CBr)c2ccccc2CCc2ccccc21 [(39)]
EC50 Fadd −/− Jurkat [1]: Inactive

CC#CC1(O)c2ccccc2CCc2ccccc21 [(40)]
EC50 Fadd −/− Jurkat [1]: Inactive

C#CC1(O)c2ccccc2CCc2c1ccc1ccccc21 (stereo not drawn) [(41)]
EC50 Fadd −/− Jurkat [1]: Inactive

C#CC1(O)c2cc(I)ccc2CCc2ccc(I)cc21 [(42)]
EC50 Fadd −/− Jurkat [1]: Inactive

C#CC1(O)c2cc([N+](=O)[O-])ccc2CCc2ccc([N+](=O)[O-])cc21 [(43)]
EC50 Fadd −/− Jurkat [1]: Inactive

C#CC1(O)c2ccccc2CCc2ccc(Br)cc21 (stereo not drawn) [(44)]
EC50 Fadd −/− Jurkat [1]: Inactive

C#CC1(O)c2ccccc2CCc2ccc(Cl)cc21 (stereo not drawn) [(45)]
EC50 Fadd −/− Jurkat [1]: Inactive

C#CC1(O)c2ccccc2CCc2ccc(C)cc21 (stereo not drawn) [(46)]
EC50 Fadd −/− Jurkat [1]: Inactive

CC(C)(O)C#CC1(O)c2ccccc2CCc2ccccc21 [(47)]
EC50 Fadd −/− Jurkat [1]: Inactive

Cc1sc2ncn(Cc3ccccc3)c(=O)c2c1C [(49)]
EC50 [1]: 3.8 µM

O=c1c2c3c(sc2ncn1Cc1cccc2cccnc12)CCC3 [(50)]
EC50 [1]: > 30 µM

COc1ccc(F)cc1Cn1cnc2sc3c(c2c1=O)CCC3 [(51)]
EC50 [1]: 10.9 µM

COc1ccc(Cn2cnc3sc4c(c3c2=O)CCC4)cc1F [(52)]
EC50 [1]: 3.05 µM

O=c1c2c3c(sc2ncn1Cc1cccc2ccccc12)CCC3 [(53)]
EC50 [1]: > 30 µM

N#Cc1ccc(Cn2cnc3sc4c(c3c2=O)CCC4)cc1 [(54)]
EC50 [1]: 0.861 µM

O=c1cc(Cn2cnc3sc4c(c3c2=O)CCC4)c2ccccc2[nH]1 [(55)]
EC50 [1]: > 30 µM

O=c1c2ccccc2ncn1Cc1ccc(Cl)cc1 [(56)]
EC50 [1]: > 30 µM

O=c1c2c3c(sc2ncn1Cc1c(Cl)cccc1Cl)CCC3 [(57)]
EC50 [1]: 0.936 µM

CCSCC(=O)Nc1ccc(F)cc1 [(64)]
EC50 [1]: 14.1 µM | EC50 L929 (L929 cells): Inactive

Cc1ccc(Cn2ncc3ccccc32)cc1 [(65)]
EC50 [1]: 3.62 µM | EC50 L929 (L929 cells): Inactive

Cc1ccc(CN(C)C(=O)C2CCCCC2)o1 [(66)]
EC50 [1]: 2.62 µM | EC50 (L929 cells): 47.1 µM

CNC(Cc1ccccc1)=C1C(=O)CC(C)(C)CC1=O [(67)]
EC50 [1]: 2.25 µM | EC50 (L929 cells): 10 µM

CNS(=O)(=O)c1cccc(C(=O)OCC(=O)N2CCCc3ccccc32)c1 [(68)]
EC50 [1]: 1.63 µM | EC50 L929 (L929 cells): Inactive

O=C(NCc1cccs1)C1CCCCC1 [(69)]
EC50 [1]: 7.72 µM | EC50 L929 (L929 cells): Inactive

Cc1s/c(=N\C(=O)C2=NNC(=O)CC2)[nH]c1-c1ccc(F)cc1 [(70)]
EC50 [1]: 0.908 µM | EC50 L929 (L929 cells): Inactive

CC(C)(C)OC(=O)Nc1ccc(-c2cc[nH]n2)cc1 [Compound (13)]
EC50 [1]: 5.38 µM | EC50 (L929 cells): 0.89 µM

O=C(N1N=CCC1c1ccccc1)C12CC3CC(CC(C3)C1)C2 (stereo not drawn) [Compound (14)]
EC50 [1]: 0.41 µM | EC50 (L929 cells): 4.2 µM

O=C(C1=NNCC1c1ccccc1)c1ccccc1 (stereo not drawn) [Compound (15)]
EC50 [1]: 0.369 µM | EC50 (L929 cells): 4.02 µM

O=C(CSc1nnnn1-c1ccccc1)N1N=CCC1c1ccccc1 (stereo not drawn) [Compound (16)]
EC50 [1]: 0.629 µM | EC50 (L929 cells): 73 µM

C#CC1(O)c2ccccc2CCc2ccccc21 [Compound (27)]
EC50 [1]: 3.23 µM | EC50 (L929 cells): 0.659 µM

O=c1c2c3c(sc2ncn1Cc1ccccc1)CCC3 [Compound (48)]
EC50 [1]: 0.216 µM | EC50 (L929 cells): 8.66 µM

CCN(CC)S(=O)(=O)c1ccc(C(=O)/N=c2\[nH]ccs2)cc1 [Compound (58)]
EC50 [1]: 8.96 µM | EC50 (L929 cells): 1.11 µM

O=C1NC(Cc2c[nH]c3ccccc23)C(=O)N1Cc1ccc(Cl)cc1 (stereo not drawn) [Compound (59)]
EC50 [1]: 0.343 µM | EC50 (L929 cells): 7.46 µM

O=C(C1COc2ccccc2O1)N1CCc2ccccc21 (stereo not drawn) [Compound (60)]
EC50 [1]: 0.629 µM | EC50 (L929 cells): 23 µM

O=C(COc1ccccc1)N1CCc2ccccc21 [Compound (61)]
EC50 Fadd −/− Jurkat [1]: Inactive

c1ccc(C2CC3CC4(CCCC4)N2O3)cc1 (stereo not drawn) [Compound (62)]
EC50 [1]: 0.668 µM | EC50 (L929 cells): 10.1 µM
